Laboratory results reported in PMC8760490, “Discovery of novel furanylbenzamide inhibitors that target oncogenic tyrosine phosphatase SHP2 in leukemia cells” (The Journal of Biological Chemistry, 2021).

Key:
Type in all cases: cell-based
MDA-MB-468 TNBC cells = assay: TNBC cell viability (CellTiter-Glo), MDA-MB-468; details: Homo sapiens, MDA-MB-468; 72 h per text; 5 days per legend and method
Description: Inhibition of SHP2 has been reported to inhibit the growth of cancer cells including Kasumi-1 acute myeloid leukemia (AML) and KYSE-520 esophageal cancer cells ([30]). […] Thus, we treated two TNBC cell lines, BT-549 and MDA-MB-468, with SBI-4668 or the SHP2 allosteric inhibitor SHP099 at various concentrations and determined cell viability after 72 h, compared with the vehicle control (Fig. 4C). […] Next, we performed an 11-day colony formation assay with TNBC cells treated with SBI-4668 or SHP099 at 5, 10, or 20 μM (Fig. 4D).
Triple-negative breast cancer cell viability was assessed using the ATP-depletion assay CellTiter-Glo. Briefly, 2500 cells in 25 μl media (RPMI + 10% FBS + 1× penicillin–streptomycin [Omega Scientific]) were seeded per well of a 384-well tissue culture–treated plate (Greiner). About 25 nl of 1000× test compound were added using a Labcyte Echo acoustic dispenser, and the cells were incubated for 5 days before addition of 10 μl of CellTiter-Glo reagent as described by the manufacturer. Luminescence was detected on a BioTek Synergy 2 microplate reader, and the values normalized to those of vehicle (DMSO)-treated controls before being plotted using GraphPad Prism.

[1] = tested on: U-937 AML cells (G60R oncogenic mutation in SHP2); assay: Cell viability (CellTiter-Glo), U-937; details: Homo sapiens, U-937, 72 h, 3 days, 0.123 to 30 μM
Source text: Oncogenic gain-of-function mutations in SHP2 drive leukemogenesis in a significant number of leukemia patients. However, because of their unique mechanism of action, the existing SHP2 allosteric inhibitors lack activity against the most common SHP2 oncogenic variants. Thus, we tested whether our inhibitors could inhibit the growth of leukemia cells expressing oncogenic SHP2 variants. […] Thus, we tested both SBI-4668 and RMC-4550 on U-937 AML cells, which harbor a G60R oncogenic mutation in SHP2. We treated cells with either SBI-4668 or RMC-4550 at various concentrations, ranging from 0.123 to 30 μM (Fig. 5A). […] We also assessed the effects of SBI-4668 and RMC-4550 on ERK1/2 activation in the SHP2 mutant U-937 cell line. […]
Viability of AML and esophageal carcinoma cells was assessed using the ATP-depletion assay CellTiter-Glo (Promega). Cells were harvested at 1 × 10^6/ml to 2 × 10^6 cells/ml with cell numbers determined by trypan blue using the Countess Cell counter (Thermo Scientific) and resuspended in culture media. […] Luminescence was read on a Tecan Spark Multimode Microplate Reader, and data were analyzed using GraphPad Prism software.

[2] = tested on: phospho-ERK1/2 (p-ERK1/2) in U-937 AML cells; assay: p-ERK1/2 immunoblot, U-937; details: SBI-4668 1, 3, 10, 30 μM, RMC-4550 1 μM
Source text: Oncogenic gain-of-function mutations in SHP2 drive leukemogenesis in a significant number of leukemia patients. However, because of their unique mechanism of action, the existing SHP2 allosteric inhibitors lack activity against the most common SHP2 oncogenic variants. Thus, we tested whether our inhibitors could inhibit the growth of leukemia cells expressing oncogenic SHP2 variants. […] Thus, we tested both SBI-4668 and RMC-4550 on U-937 AML cells, which harbor a G60R oncogenic mutation in SHP2. We treated cells with either SBI-4668 or RMC-4550 at various concentrations, ranging from 0.123 to 30 μM (Fig. 5A). […] We also assessed the effects of SBI-4668 and RMC-4550 on ERK1/2 activation in the SHP2 mutant U-937 cell line. Similar to the immunoblot experiments described for MOLM-13 cells above, U-937 AML cells were treated with either vehicle control (DMSO), SBI-4668 (1, 3, 10, or 30 μM), or with RMC-4550 (1 μM) for 24 h and processed for p-ERK1/2 immunoblot analysis (Fig. 5B).
Cells cultured in RPMI medium were treated as indicated in the legends to the figures. […] Densitometric quantitation of immunoblots was performed using Image Studio Lite Software (LI-COR). Changes of phosphorylated ERK1/2 to total ERK1/2 ratios are expressed as percentage of the vehicle-treated controls. […]

Compound: O=C(Nc1ccccc1)c1cc(-c2ccc(/C=C3\Sc4ccccc4C3=O)o2)ccc1O [SBI-4668, (Z)-2-Hydroxy-5-(5-((3-oxobenzo[b]thiophen-2(3H)-ylidene)methyl)furan-2-yl)-N-phenylbenzamide]
- IC50 (MDA-MB-468 TNBC cells): 2.5 µM
- IC50 [1]: 6.3 µM
- p-ERK1/2 levels, U-937, 24 h [2]: dose-dependently inhibited ERK1/2 activation
